The source of these data is ChEMBL document CHEMBL1143464, “Trifluoromethyl group as a pharmacophore: effect of replacing a CF3 group on binding and agonist activity of a glucocorticoid receptor ligand” (Bioorg Med Chem Lett, 2005).

pEC50, pIC50: −log10 of the molar value.

Assay [1] addresses T1, Glucocorticoid receptor (Homo sapiens, UniProt P04150).
T1 sequence (P04150 whole entry): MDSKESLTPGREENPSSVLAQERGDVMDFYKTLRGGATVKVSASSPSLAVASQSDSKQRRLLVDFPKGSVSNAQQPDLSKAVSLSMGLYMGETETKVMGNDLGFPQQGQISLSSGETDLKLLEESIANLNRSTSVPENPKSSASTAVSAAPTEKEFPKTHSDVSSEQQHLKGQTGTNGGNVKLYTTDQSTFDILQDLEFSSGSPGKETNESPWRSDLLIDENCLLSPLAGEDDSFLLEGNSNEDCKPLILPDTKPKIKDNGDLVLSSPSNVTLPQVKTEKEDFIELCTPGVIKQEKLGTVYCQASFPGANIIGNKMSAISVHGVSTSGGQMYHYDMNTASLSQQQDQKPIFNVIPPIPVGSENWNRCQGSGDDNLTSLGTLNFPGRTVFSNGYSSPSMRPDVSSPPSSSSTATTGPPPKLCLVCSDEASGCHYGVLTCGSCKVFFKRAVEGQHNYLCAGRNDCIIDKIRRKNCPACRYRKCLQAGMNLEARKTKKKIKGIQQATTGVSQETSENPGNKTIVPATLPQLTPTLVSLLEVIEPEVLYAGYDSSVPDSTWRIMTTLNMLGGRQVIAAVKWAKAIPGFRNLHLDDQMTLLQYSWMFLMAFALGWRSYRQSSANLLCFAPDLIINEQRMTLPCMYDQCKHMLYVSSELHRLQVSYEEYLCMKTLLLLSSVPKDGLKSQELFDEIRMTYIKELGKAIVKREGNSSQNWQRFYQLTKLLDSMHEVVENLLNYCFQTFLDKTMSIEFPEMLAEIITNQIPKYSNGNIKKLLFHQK
As to the kind of experiment: Effective concentration against inhibition of Dexamethasone induced glucocorticoid receptor transactivation of mouse mammary tumor virus luciferase gene in HeLa cells. The format is cell-based.

Assay [2] concerns the target T1, Glucocorticoid receptor. The assay can be described thus: Effective agonist concentration for transcriptional repression of IL-6 production in IL-1 stimulated human foreskin fibroblasts. The format is functional.
Assay [3] has as its target T2, Progesterone receptor (Homo sapiens, UniProt P06401).
T2 sequence (P06401 whole entry): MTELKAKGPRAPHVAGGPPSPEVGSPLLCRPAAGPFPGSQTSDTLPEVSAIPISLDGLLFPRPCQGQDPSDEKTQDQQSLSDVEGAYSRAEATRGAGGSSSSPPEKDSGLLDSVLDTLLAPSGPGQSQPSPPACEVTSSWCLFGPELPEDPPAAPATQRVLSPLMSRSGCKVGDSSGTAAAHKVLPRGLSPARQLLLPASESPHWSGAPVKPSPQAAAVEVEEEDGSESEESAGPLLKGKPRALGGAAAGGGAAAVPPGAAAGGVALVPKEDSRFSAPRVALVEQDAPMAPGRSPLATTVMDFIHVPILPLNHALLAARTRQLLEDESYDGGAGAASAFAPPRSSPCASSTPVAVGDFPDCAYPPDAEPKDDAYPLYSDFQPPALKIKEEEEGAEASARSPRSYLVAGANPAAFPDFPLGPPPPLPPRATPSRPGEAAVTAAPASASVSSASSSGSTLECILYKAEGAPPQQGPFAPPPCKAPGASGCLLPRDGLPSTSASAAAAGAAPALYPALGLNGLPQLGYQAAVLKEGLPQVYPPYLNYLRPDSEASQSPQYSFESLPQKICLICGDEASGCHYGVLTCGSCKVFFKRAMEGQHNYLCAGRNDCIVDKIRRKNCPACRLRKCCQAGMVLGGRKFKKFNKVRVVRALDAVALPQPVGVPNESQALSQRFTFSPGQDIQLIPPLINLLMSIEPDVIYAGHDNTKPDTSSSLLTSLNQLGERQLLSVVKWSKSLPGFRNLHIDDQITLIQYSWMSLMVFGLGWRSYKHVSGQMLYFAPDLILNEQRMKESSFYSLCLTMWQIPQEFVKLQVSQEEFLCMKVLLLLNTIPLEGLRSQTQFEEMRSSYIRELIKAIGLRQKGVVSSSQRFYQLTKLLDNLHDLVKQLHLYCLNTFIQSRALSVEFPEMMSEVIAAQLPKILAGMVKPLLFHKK
The assay can be described thus: Binding affinity towards progesterone receptor using fluorescence polarization competitive binding assay. On the technique in general: Polarisation of emitted light reports the rotation of a fluorescent probe.

In assay [4] the target is T3, Mineralocorticoid receptor (Homo sapiens, UniProt P08235).
T3 sequence (P08235 whole entry): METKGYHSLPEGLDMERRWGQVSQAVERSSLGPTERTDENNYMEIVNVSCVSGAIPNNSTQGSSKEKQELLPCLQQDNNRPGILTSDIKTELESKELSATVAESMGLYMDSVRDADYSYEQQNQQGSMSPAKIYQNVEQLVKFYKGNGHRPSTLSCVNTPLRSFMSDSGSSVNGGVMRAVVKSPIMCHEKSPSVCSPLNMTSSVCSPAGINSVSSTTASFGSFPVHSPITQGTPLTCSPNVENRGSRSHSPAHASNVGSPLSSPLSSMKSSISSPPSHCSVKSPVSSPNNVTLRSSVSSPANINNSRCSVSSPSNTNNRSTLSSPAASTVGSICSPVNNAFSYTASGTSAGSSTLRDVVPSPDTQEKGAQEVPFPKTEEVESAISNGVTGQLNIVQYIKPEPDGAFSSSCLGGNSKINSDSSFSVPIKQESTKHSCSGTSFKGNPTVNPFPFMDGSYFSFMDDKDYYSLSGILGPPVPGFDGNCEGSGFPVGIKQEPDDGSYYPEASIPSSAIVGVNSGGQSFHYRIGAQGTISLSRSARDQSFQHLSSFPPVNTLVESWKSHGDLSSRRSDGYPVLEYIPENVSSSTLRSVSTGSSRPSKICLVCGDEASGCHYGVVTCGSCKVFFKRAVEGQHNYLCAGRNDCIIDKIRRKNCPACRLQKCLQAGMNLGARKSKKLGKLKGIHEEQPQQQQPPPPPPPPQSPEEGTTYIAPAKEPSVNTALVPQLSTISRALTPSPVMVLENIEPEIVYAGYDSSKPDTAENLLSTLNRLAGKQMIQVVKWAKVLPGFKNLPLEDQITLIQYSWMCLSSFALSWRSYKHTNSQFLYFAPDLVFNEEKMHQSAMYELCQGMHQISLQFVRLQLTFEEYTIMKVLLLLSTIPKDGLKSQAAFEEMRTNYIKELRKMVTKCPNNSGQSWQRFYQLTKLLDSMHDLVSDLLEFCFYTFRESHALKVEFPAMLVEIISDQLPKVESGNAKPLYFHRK
The assay can be described thus: Binding affinity towards mineralocorticoid receptor using fluorescence polarization competitive binding assay.

Assay [5] concerns the target T1, Glucocorticoid receptor. As to the kind of experiment: Binding affinity towards glucocorticoid receptor using fluorescence polarization competitive binding assay.

`CC(C)(CC(O)(C(=O)Nc1ccc2c(c1)COC2=O)C(F)(F)F)c1cc(F)ccc1O` (centres undefined): the negative logarithm of the EC50 (pEC50) (in general, −log10 of the EC50, conventionally taken in molar units) was 6.82 in assay [1] and 7.35 in assay [2]. For the same molecule, the negative-log IC50 (pIC50) (usually −log10 of the IC50, conventionally taken in molar units) was 7.80 in assay [3], 7.52 in assay [4] and 8.22 in assay [5].

Molecule `Cc1noc(=O)c2ccc(NC(=O)C(O)(CC(C)(C)c3cc(F)ccc3O)C(F)(F)F)cc12` (centres undefined) showed a negative logarithm of the EC50 (pEC50) in assay [2] of 8.00. In addition, the negative logarithm of the IC50 (pIC50) in assay [3] was 7.66; in assay [4] it was 7.39; in assay [5], 8.40.
